Patent US20240158348A1, “HERBICIDAL CYCLIC AMIDES N-SUBSTITUTED WITH A HALOALKYLSULFONYLANILIDE GROUP” (FMC Corporation, priority 2021, published 2024)

Assays:
Assay type in all cases: in vivo
[1] = tested on: barnyardgrass (Echinochloa crusgalli); assay: Test D flooded paddy test, barnyardgrass; set-up: key: 0 = no effect, 100 = complete control; details: 250 g ai/ha, Flood; applied to paddy water at 2-leaf stage; visual rating after 13 days; scale 0 (no effect) to 100 (complete control)
Outline: (§1)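 Pots holding 2-leaf-stage plants were flooded 3 cm deep and dosed via the water, which stayed at that level. After 13 greenhouse days, injury was scored visually against untreated controls, 0 (none) to 100 (complete control); a dash marks no test result.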

[2] = tested on: pigweed, palmer (palmer amaranth, Amaranthus palmeri); assay: Test C postemergence, palmer amaranth; details: visual injury, 0 to 100 scale (0 no effect, 100 complete control)
Outline: (§2)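 Greenhouse pot test. Compounds in a non-phytotoxic solvent with surfactant were applied to a loam–sand soil mix either preemergence as a directed spray or postemergence to plants at the one- to two-leaf stage; 0–100 visual ratings followed after 10 or 12 days.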

[3] = tested on: foxtail, giant (giant foxtail, Setaria faberi); assay: Test C preemergence, giant foxtail; details: 0 is no effect, 100 is complete control
Outline: as §2

[4] = tested on: ragweed (common ragweed, Ambrosia artemisiifolia); assay: Test C postemergence, ragweed; details: visual injury, 0 to 100 scale (0 no effect, 100 complete control)
Outline: as §2

[5] = tested on: sedge, umbrella (small-flower umbrella sedge, Cyperus difformis); assay: Test D flooded paddy test, umbrella sedge; set-up: key: 0 = no effect, 100 = complete control; details: 250 g ai/ha, Flood; applied to paddy water at 2-leaf stage; visual rating after 13 days; scale 0 (no effect) to 100 (complete control)
Outline: as §1

[6] = tested on: soybean (Glycine max); assay: Test C postemergence, soybean; details: visual injury, 0 to 100 scale (0 no effect, 100 complete control)
[7] = tested on: oat, wild (wild oat, Avena fatua); assay: Test C postemergence, wild oat; details: visual injury, 0 to 100 scale (0 no effect, 100 complete control)
[8] = tested on: rice (Oryza sativa); assay: Test D flooded paddy test, rice; set-up: key: 0 = no effect, 100 = complete control; details: 250 g ai/ha, Flood; applied to paddy water at 2-leaf stage; visual rating after 13 days; scale 0 (no effect) to 100 (complete control)
Outline: as §1

[9] = tested on: kochia (Bassia scoparia); assay: Test C preemergence, kochia; details: 0 is no effect, 100 is complete control
Outline: as §2

Compound	Plant response rating, Barnyardgrass [1]	Pigweed, Palmer plant response rating ([2]; 31 g ai/ha Postemergence)	Pigweed, Palmer plant response rating ([2]; 125 g ai/ha Postemergence)	Plant response rating (0 to 100 scale), Foxtail, Giant ([3]; 31 g ai/ha Preemergence)	Plant response rating (0 to 100 scale), Foxtail, Giant ([3]; 125 g ai/ha Preemergence)	Ragweed plant response rating ([4]; 31 g ai/ha Postemergence)	Ragweed plant response rating ([4]; 125 g ai/ha Postemergence)	Plant response rating, Sedge, Umbrella [5]	Soybean plant response rating ([6]; 31 g ai/ha Postemergence)	Soybean plant response rating ([6]; 125 g ai/ha Postemergence)	Oat, Wild plant response rating ([7]; 31 g ai/ha Postemergence)	Oat, Wild plant response rating ([7]; 125 g ai/ha Postemergence)	Plant response rating, Rice [8]	Plant response rating (0 to 100 scale), Kochia ([9]; 31 g ai/ha Preemergence)	Plant response rating (0 to 100 scale), Kochia ([9]; 125 g ai/ha Preemergence)
Cc1cc(C)c(N2CCC(OCC3CCC3(F)F)C2=O)cc1NS(=O)(=O)C(F)(F)F (stereo not drawn) [Compound 52]	20	0	40	90	100	40	70	80	60	70	10	60	0	70	100
Cc1cc(C)c(N(COC(=O)C(C)(C)C)S(=O)(=O)C(F)(F)F)cc1N1CCC(OCC2CC2(F)F)C1=O (stereo not drawn) [Compound 54]	45	0	50	0	80	50	80	98	50	60	10	80	0	0	30
Cc1cc(C)c(N(COC(=O)C(C)(C)C)S(=O)(=O)C(F)(F)F)cc1N1CCC(OCC2CC(F)(F)C2)C1=O (stereo not drawn) [Compound 55]	50	0	40	0	10	50	80	95	50	70	20	30	15	0	10
C#CC(C)OC1CCN(c2cc(NS(=O)(=O)C(F)(F)F)c(C)cc2C)C1=O (stereo not drawn) [Compound 58]	90	50	80	100	100	70	90	95	60	90	60	90	60	80	90
C=C(C)COC1CCN(c2cc(NS(=O)(=O)C(F)(F)F)c(C)cc2C)C1=O (stereo not drawn) [Compound 59]	60	40	80	100	100	10	70	95	60	80	30	90	40	80	100
CC#CCOC1CCN(c2cc(NS(=O)(=O)C(F)(F)F)c(C)cc2C)C1=O (stereo not drawn) [Compound 60]	90	60	90	100	100	80	90	95	80	100	30	90	35	90	100
Cc1cc(C)c(N2CCC(OCc3ccccc3)C2=O)cc1NS(=O)(=O)C(F)(F)F (stereo not drawn) [Compound 61]	95	50	80	100	100	50	80	90	60	90	20	80	20	90	100
Cc1c(NS(=O)(=O)C(F)(F)F)cc(N2CCC(OCC3CC3)C2=O)c(C)c1F (stereo not drawn) [Compound 63]	45	70	90	100	100	40	80	95	50	100	0	40	45	90	100
